These results are taken from patent US20040127455A1, “Muscosal immunoregulatory agent and its use” (KABUSHIKI Kaisha Hayashibara Seibutsu KK, priority 2000, published 2004).

For assay [1], the system named is immunocompetent cells from the Peyer's patches. The experiment in a line: IFN-γ production by immunocompetent cells from the Peyer's patches of orally treated mice, LPS stimulation (Experiment 1). Type of assay: in vivo, male C3H/HeN mice. To be noted: 1 g/kg oral, once per day for five days, two days culture, versus non-treated mice (FIG. 1). How it is done: The effect on response of immunocompetent cells with trehalose administration was evaluated based on the production level of IFN-γ as a merkmal when the immunocompetent cells from the Peyer's patches were stimulated with lipopolysaccharide (LPS). IFN-γ is a cytokine which also improves the production of IgA as described above. α,α-Trehalose crystalline powder (registered trademark of “TREHA”, commercialized by Hayashibara Shoji Co. Ltd., Okayama, Japan) was dissolved in distilled water and sterilized, and then administrated into male C3H/HeN, five weeks aged mice (ten mice in each group) through oral pathway for five days by one time per day with a dosage of 1 g/kg mouse body weight of α,α-trehalose. Non-α,α-trehalose administrated mice as a control were administrated with an equal volume of distilled water. All the mice were bred under a clean environment, and freely fed with a sterilized solid fodder and water. […] The cells were incubated for two days in an incubator maintained at 37° C. and 5% CO2, after that, the IFN-γ concentration in each culture was measured by a conventional enzyme immunoassay. […]

Assay [2] has the same test system. The experiment in a line: IL-2, IFN-γ and IgA production by immunocompetent cells from the Peyer's patches of orally treated mice, LPS or Con A stimulation (Experiment 2). In kind it is in vivo, female ddY mice. The note with it: 0.1 g/kg oral, five times per week for four weeks, three days culture. How it is done: The effect on the response of immunocompetent cells with trehalose administration was evaluated by the production level of IL-2, IFN-γ, and IgA as a merkmal when the immunocompetent cells from the Peyer's patches stimulated with lipopolysaccharide (LPS) or Concanavalin A (Con A). Specifically, 0.1 g/kg mouse body weight of α,α-trehalose was administrated into female ddY mice through oral administration for four weeks with five times per a week, and non-α,α-trehalose administrated mice were used as a control. All the mice were anatomized and picked up all the Peyer's patches, which were then cut into pieces and treated with 0.2% (w/v) of collagenase solution at 37° C. for 30 minutes, passed through a cell strainer to remove non-digestive materials, and centrifuged to obtain a pellet. The pellet was suspended with a 45% (v/v) percol solution, and the suspension was put on a 75% (v/v) percol solution and centrifuged. Then, immunocompetent cells in an inter layer of percol were recovered and suspended in RPMI1640 medium with 10% of fetal calf serum and 5×10^−5 mol/l of 2-mercaptethanol. The resulting suspension was divided into three groups, and the two groups of which were mixed with 2 μg/ml of LPS or 5 μg/ml of Con A and adjusted a final concentration to 1×10^6 cells/ml. The resulting group as a control was not received with the above stimulation. They were incubated for three days in an incubator maintained at 37° C. and 5% CO2. Thereafter, the concentrations of the IL-2, IFN-γ and IgA concentration in the resulting cultures were measured by a conventional immunoassay method in Experiment 1.

`OC[C@H]1O[C@H](O[C@H]2O[C@H](CO)[C@@H](O)[C@H](O)[C@H]2O)[C@H](O)[C@@H](O)[C@@H]1O` [α,α-Trehalose, α,α-trehalose]: in assay [1] (cells with 0 μg/ml LPS), the “IFN-γ production with no LPS stimulation” value is on record as “tendency to decrease IFN-γ production”. The “IFN-γ production under the LPS stimulation” value in assay [1] (cells with 0.2 or 1 μg/ml LPS) was “stronger tendency of increasing production of IFN-γ”. Moreover, in assay [2] (no stimulation), the IFN-γ entry is “Under 0.4 IU/ml”, the IL-2 result is on record as “Under 50 pg” and the IgA is 719 ng/mL. Moreover, in assay [2] (stimulation Con A 5 μg/ml), the IFN-γ is 6.4 IU/ml, the IL-2 entry is given as “Under 50 pg” and the IgA was found to be 1671 ng/mL. In addition, in assay [2] (stimulation LPS 2 μg/ml), the IFN-γ is given as 4.5 IU/ml, the IL-2 was 115 pg and the IgA stood at 2305 ng/mL.
